Results on five compounds are retold here after US12173137B2, “Functionalized high-oleic soybean oil wax and emulsion for post-harvest treatment of fresh fruit” (Iowa State University Research Foundation, Inc., priority 2020, dated 2024).

Marks after values point to notes of the source that are not given here.

Assay type in all cases: physicochemical
Series [1] in a line: Cohesiveness of wax materials (three-point bend test). As to conditions: area under curve to peak force, 4 mm-thick cast sample. Here is the method: (§1) Hardness, defined as a measure of resistance to local deformation, was measured using a H-1200 Universal Penetrometer (Humboldt Mfg. Co., Raleigh, NC) following ASTM D1321 standard. Ten grams of molten material were cast in a 5 cm diameter by 3 cm tall hollow polyvinyl chloride plastic mold. Material was allowed to fully cool and equilibrate to room temperature for at least 6 hours prior to testing. The distance traveled by penetrometer needle (mm) into the wax disc was recorded as the hardness (mm^−1) after taking the reciprocal value. Cohesiveness, defined as the strength of a material due to interatomic or intermolecular forces, was measured as per previous methodology (Fei et al., “Synthesis and Characterization of Soybean Oil-Based Waxes and Their Application as Paraffin Substitute for Corrugated Coating,” J. Ind. Eng. Chem. 58:113-122 (2018), which is hereby incorporated by reference in its entirety) by a three-point bend test using a TA.XTPlus Texture Analyzer (Stable Micro Systems, So. Hamilton, MA) with a TA-92N probe on a 4 mm-thick cast wax sample, made by casting 2.2-2.8 g of molten material in a small hexagonal weighing boat, and allowing samples to cool to r.t. for at least 2 hours. Hexagonal samples were then sanded down flat to a uniform mass with a fine grit sanding sponge taking care to remove concave and convex regions. Test was performed by placing sample between two vertical support bars 12 mm apart and driving the blunt blade normal to the sample at 0.5 mm/s to a trigger distance of 3 mm. The area under curve was acquired from a distance at 0 mm to the peak positive force, and the average of three tests for each material was recorded as the cohesiveness (g mm) of the material.

Series [2] can be described thus: Differential scanning calorimetry of wax materials. As to conditions: for Relative Crystallinity: 290 J/g for a 100% crystalline material; for Enthalpy of Melting: DSC, heating to 100° C. at 10° C./min. Here is the method:
Melting profile of wax materials was analyzed with a DSC 250 Discovery (TA Instruments, New Castle, Del.) calorimeter using the methodology by Donhowe and Fennema (1993). Wax samples (approximately 10 mg) were first heated to 100° C. at a rate of 200° C./min, held for 3 min, cooled to 25° C. at a rate of 20° C./min and equilibrated for 3 min. Actual test ramp was then performed by heating to 100° C. at a rate of 10° C./min. Melting point ranges were calculated from the average of three samples from each material.

Series [3] in a line: Hardness of wax materials (penetrometer, ASTM D1321). As to conditions: reciprocal of needle penetration distance, room temperature. Here is the method:
as §1

Regarding `CCCCCC[C@@H](O)CCCCCCCCCCC(=O)O` [Compound 6, (R)-12-hydroxyoctadecanoic acid, reference compound], in series [1], the Cohesiveness was 1443 ± 30^c g mm. In addition, in series [2], the “Relative Crystallinity” value was 51.2 ± 1.0^ab % and the “Enthalpy of Melting” value is 148.4 ± 3.1 J/g. Besides, in series [3], the Hardness is reported as 2.22 ± 0.04^c mm^−1.
In series [1], `CCCCCCC(=O)CCCCCCCCCCC(=O)O` [Compound 7, 12-Oxooctadecanoic Acid] displayed a Cohesiveness of 360 ± 34 g mm. Further, in series [2], the “Relative Crystallinity” value was found to be 42.8 ± 10.1% and the “Enthalpy of Melting” value came out at 124.3 ± 29.4 J/g. In series [3], this compound came in with a Hardness of 0.63 ± 0.08 mm^−1.
In series [1], `CCCCCCC(=O)CCCCCCCCCCC(=O)OCC(COC(=O)CCCCCCCCCCC(=O)CCCCCC)OC(=O)CCCCCCCCCCC(=O)CCCCCC` [Compound 8, Propane-1,2,3-triyl tris(12-oxooctadecanoate)] had a Cohesiveness of 203 ± 49 g mm. Further, in series [2], the “Relative Crystallinity” value is given as 43.7 ± 0.7^ % and the “Enthalpy of Melting” value is 126.8 ± 2.0 J/g. Moreover, the Hardness in series [3] was found to be 0.50 ± 0.09 mm^−1.
For “Mixture of 9-Hydroxyoctadecanoic (4a) and 10-Hydroxyoctadecanoic Acid (4b) [Compound 4a-b]”, in that order: 95 ± 1 g mm, 6.3 ± 0.4^f %, 18.3 ± 0.1 J/g and 0.30 ± 0.02^e mm^−1.
For “Triacylglyceride of Regioisomeric Hydroxyoctadecanoic Acid [Compound 3]”, in that order: 113 ± 13 g mm, 12.9 ± 1.5^ef %, 37.3 ± 4.3 J/g and 0.68 ± 0.05 mm^−1.
